From patent US9963446B2, “Oxepan-2-yl-pyrazol-4-yl-heterocyclyl-carboxamide compounds and methods of use” (Genentech, Inc., priority 2014, dated 2018)

Experiments:
[1] = biological target: PIM1 (Homo sapiens (Human), UniProt P11309); assay: Pim kinase binding activity (PIM1 LC3K Ki); type: biochemical; details: 20 pM PIM1, 10 μM ATP, 90 minutes
Experimental: PIM-1, -2, and -3 enzymes were generated as fusion proteins expressed in bacteria and purified by IMAC column chromatography (Sun, X., Chiu, J. F., and He, Q. Y. (2005) Expert Rev. Proteomics, 2:649-657). A fluorescent-labeled Pim-specific peptide substrate, was custom synthesized by American Peptide Company (Sunnyvale, Calif.). Reaction Buffer contained 10 mM HEPES, pH 7.2, 10 mM MgCl2, 0.01% Tween 20, 2 mM DTT. Termination Buffer contained 190 mM HEPES, pH 7.2, 0.015% Brij-35, 0.2% Coating Reagent 3 (Caliper Life Sciences, Hopkinton, Mass.), 20 mM EDTA. Separation Buffer contained 100 mM HEPES, pH 7.2, 0.015% Brij-35, 0.1% Coating Reagent 3, 1:200 Coating Reagent 8 (Caliper Life Sciences, Hopkinton, Mass.), 10 mM EDTA and 5% DMSO.
PIM reactions were carried out in a final volume of 10 μL per well in a 384-well plate. A standard enzymatic reaction, initiated by the addition of 5 μL 2×ATP and test compound to 5 μL of 2× enzyme and FAM-peptide, contained 20 pM PIM1, 50 pM PIM2, or 55 pM PIM3, 1 μM FAM-peptide, and 10 μM ATP, in Reaction Buffer. After 90 minutes of incubation at room temperature, the phosphorylation reaction was stopped by the addition of 10 μL Termination Buffer. The product and substrate in each independent reaction were separated on a 12-sipper microfluidic chip (Caliper Life Sciences, Hopkinton, Mass.) run on a Caliper LC3000® (Caliper Life Sciences, Hopkinton, Mass.). The separation of product and substrate was optimized by choosing voltages and pressure using Caliper's Optimizer software (Hopkinton, Mass.). The separation conditions used a downstream voltage of −500V, an upstream voltage of −2150V, and a screening pressure of −1.2 psi. The product and substrate fluorophore were excited at 488 nm and detected at 530 nm. Substrate conversion was calculated from the electropherogram using HTS Well Analyzer software (Caliper Life Sciences, Hopkinton, Mass.). Ki values for the test compound were calculated. See Table 1 for representative PIM1 LC3K Ki in micromolar values of exemplary compounds.

[2] = test system: MM1.S (multiple myeloma) cells; assay: In vitro cell proliferation, MM1.S (CELL TITER GLO); type: cell-based; details: Homo sapiens, 72 hours, read-out: Prolif MM1S ATP (EC50)
Experimental: (§1) BaF3 parental line was obtained from the DSMZ repository. BaF3 lines transfected with PIM1 or PIM2 were generated. Mouse IL-3 was purchased from R&D Systems. G418 was purchased from Clontech. Media for BaF3 parental line contained RPMI, 10% FBS, 2 mM L-Glutamine, 2 ng/mL mIL-3. Media for BaF3 PIM1 & 2 lines contained RPMI, 10% FBS, 2 mM L-Glutamine, […]. Media for MM1.S (multiple myeloma cells) line contained RPMI, 10% FBS, 2 mM L-Glutamine.
(§2) BaF3, a murine interleukin-3 dependent pro-B cell line, parental cells, BaF3 PIM1 cells, BaF3 PIM2 cells, and MM1.S (multiple myeloma) cells were seeded at 2 k/well, 5 k/well, 5 k/well, and 10 k/well respectively, in a 384-well plate, at 45 μL/well. Test compound was added at 5 μL/well. BaF3 cells (parental and transfected) were incubated overnight, while MM1.S cells were incubated for 72 hours at 37° C., 5% CO2. CELL TITER GLO® Reagent (Promega) was added at 50 μL/well, the plates were incubated for 30 minutes, and their luminescence read on an HT Analyst. IC50/EC50 values for the test compound were calculated.

[3] = test system: BaF3 PIM1 cells; assay: In vitro cell proliferation, BaF3 transfected with PIM1; type: cell-based, murine; details: Mus musculus; BaF3 PIM1 line, incubated overnight; read-out: Prolif BaF3 PIM1 (IC50)
Experimental: as §1, §2

[4] = test system: BaF3 parental cells; assay: In vitro cell proliferation, BaF3 parental line + IL3; type: cell-based, murine; details: Mus musculus; BaF3 parental line with mIL-3, incubated overnight; read-out: Prolif BaF3 + IL3 (IC50)
Experimental: as §1, §2

Chain of PIM1 (P11309 whole entry, the tested form may be a part): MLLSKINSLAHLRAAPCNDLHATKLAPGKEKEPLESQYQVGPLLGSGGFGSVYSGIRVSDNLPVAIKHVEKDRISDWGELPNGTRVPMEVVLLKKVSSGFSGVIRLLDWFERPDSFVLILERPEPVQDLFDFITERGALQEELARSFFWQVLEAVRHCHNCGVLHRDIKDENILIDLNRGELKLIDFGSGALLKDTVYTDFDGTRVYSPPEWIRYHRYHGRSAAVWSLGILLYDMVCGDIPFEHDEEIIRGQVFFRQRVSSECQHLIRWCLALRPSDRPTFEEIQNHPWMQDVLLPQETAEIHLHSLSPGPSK

| SMILES | Ki [1] | EC50 [2] | IC50 [3] | IC50 [4] |
| --- | --- | --- | --- | --- |
| N[C@H]1CC[C@H](c2c(NC(=O)c3ccc(F)c(-c4c(F)cccc4F)n3)cnn2C2CC2)OC[C@@H]1F [Example 114, N-[5-[(2R,5S,6R)-5-amino-6-fluoro-oxepan-2-yl]-1-cyclopropyl-pyrazol-4-yl]-6-(2,6-difluorophenyl)-5-fluoro-pyridine-2-carboxamide] | 0.173 nM | 443 nM | 75.1 nM | 10100 nM |
| CO[C@H]1[C@H](N)CC[C@@H](c2c(NC(=O)c3csc(-c4c(F)cccc4F)n3)cnn2C)O[C@H]1C [Example 117, N-[5-[(2S,5R,6S,7S)-5-amino-6-methoxy-7-methyl-oxepan-2-yl]-1-methyl-pyrazol-4-yl]-2-(2,6-difluorophenyl)thiazole-4-carboxamide] | 0.0325 nM | 53.9 nM | 14 nM | 6900 nM |
| CO[C@H]1[C@H](N)CC[C@@H](c2c(NC(=O)c3csc(-c4c(F)cccc4F)n3)cnn2C)O[C@@H]1C [Example 118, N-(5-((2S,5R,6S,7R)-5-amino-6-methoxy-7-methyloxepan-2-yl)-1-methyl-1H-pyrazol-4-yl)-2-(2,6-difluorophenyl)thiazole-4-carboxamide] | 0.006 nM | 67.3 nM | 8.95 nM | 2500 nM |
| Cn1ncc(NC(=O)c2csc(-c3cn4ccnc4cn3)n2)c1[C@@H]1CC[C@@H](N)[C@H](F)CO1 [Example 122, N-(5-((2S,5R,6S)-5-amino-6-fluorooxepan-2-yl)-1-methyl-1H-pyrazol-4-yl)-2-(imidazo[1,2-a]pyrazin-6-yl)thiazole-4-carboxamide] | 0.025 nM | 600 nM | 184 nM | 12500 nM |

More lines, main results first:

| Ki [1] | EC50 [2] | IC50 [3] | SMILES | IC50 [4] |
| --- | --- | --- | --- | --- |
| 0.004 nM | 202 nM | 118 nM | Cn1ncc(NC(=O)c2csc(-c3c(F)cc4c(c3F)OCC[C@H]4O)n2)c1[C@@H]1CC[C@@H](N)[C@H](F)CO1 [Example 112, N-(5-((2S,5R,6S)-5-amino-6-fluorooxepan-2-yl)-1-methyl-1H-pyrazol-4-yl)-2-((R)-6,8-difluoro-4-hydroxychroman-7-yl)thiazole-4-carboxamide] | > 25000 nM |
| 0.03 nM | 906 nM | 327 nM | Cn1ncc(NC(=O)c2csc(-c3n[nH]c4c3CCC4)n2)c1[C@@H]1CC[C@@H](N)[C@H](F)CO1 [Example 113, N-[5-[(2S,5R,6S)-5-amino-6-fluoro-oxepan-2-yl]-1-methyl-pyrazol-4-yl]-2-(1,4,5,6-tetrahydrocyclopenta[c]pyrazol-3-yl)thiazole-4-carboxamide] | 13600 nM |
| 0.043 nM | 407 nM | 49.2 nM | COc1cnc(-c2nc(C(=O)Nc3cnn(C)c3[C@@H]3CC[C@@H](N)[C@H](F)CO3)cs2)c(C)c1 [Example 119, N-[5-[(2S,5R,6S)-5-amino-6-fluoro-oxepan-2-yl]-1-methyl-pyrazol-4-yl]-2-(5-methoxy-3-methyl-2-pyridyl)thiazole-4-carboxamide] | 2900 nM |
| 1.79 nM | 228 nM | 563 nM | Cn1ncc(NC(=O)c2csc(-c3cccc4cccnc34)n2)c1[C@@H]1CC[C@@H](N)[C@H](F)CO1 [Example 120, N-[5-[(2S,5R,6S)-5-amino-6-fluoro-oxepan-2-yl]-1-methyl-pyrazol-4-yl]-2-(8-quinolyl)thiazole-4-carboxamide] | 2300 nM |
| 0.0049 nM | 376 nM | 12.2 nM | C[C@@H]1O[C@H](c2c(NC(=O)c3csc(-c4c(F)cccc4F)n3)cnn2C)CC[C@@H](N)[C@H]1F [Example 121, N-(5-((2S,5R,6R,7S)-5-amino-6-fluoro-7-methyloxepan-2-yl)-1-methyl-1H-pyrazol-4-yl)-2-(2,6-difluorophenyl)thiazole-4-carboxamide] | 14200 nM |
